# Reference: paper PMC4673163, “Natural paniceins from mediterranean sponge inhibit the multidrug resistance activity of Patched and increase chemotherapy efficiency on melanoma cells” (Oncotarget, 2015)
# Target: T1, human Patched (Patched 1; hPatched-MAP) (Homo sapiens, UniProt Q13635)
# T1 construct: gene PTCH1; human Patched with MAP tag from pYEP-hPatched-MAP, expressed in Saccharomyces cerevisiae K699; whole yeast, not purified
# T1 sequence (Q13635 1-1447): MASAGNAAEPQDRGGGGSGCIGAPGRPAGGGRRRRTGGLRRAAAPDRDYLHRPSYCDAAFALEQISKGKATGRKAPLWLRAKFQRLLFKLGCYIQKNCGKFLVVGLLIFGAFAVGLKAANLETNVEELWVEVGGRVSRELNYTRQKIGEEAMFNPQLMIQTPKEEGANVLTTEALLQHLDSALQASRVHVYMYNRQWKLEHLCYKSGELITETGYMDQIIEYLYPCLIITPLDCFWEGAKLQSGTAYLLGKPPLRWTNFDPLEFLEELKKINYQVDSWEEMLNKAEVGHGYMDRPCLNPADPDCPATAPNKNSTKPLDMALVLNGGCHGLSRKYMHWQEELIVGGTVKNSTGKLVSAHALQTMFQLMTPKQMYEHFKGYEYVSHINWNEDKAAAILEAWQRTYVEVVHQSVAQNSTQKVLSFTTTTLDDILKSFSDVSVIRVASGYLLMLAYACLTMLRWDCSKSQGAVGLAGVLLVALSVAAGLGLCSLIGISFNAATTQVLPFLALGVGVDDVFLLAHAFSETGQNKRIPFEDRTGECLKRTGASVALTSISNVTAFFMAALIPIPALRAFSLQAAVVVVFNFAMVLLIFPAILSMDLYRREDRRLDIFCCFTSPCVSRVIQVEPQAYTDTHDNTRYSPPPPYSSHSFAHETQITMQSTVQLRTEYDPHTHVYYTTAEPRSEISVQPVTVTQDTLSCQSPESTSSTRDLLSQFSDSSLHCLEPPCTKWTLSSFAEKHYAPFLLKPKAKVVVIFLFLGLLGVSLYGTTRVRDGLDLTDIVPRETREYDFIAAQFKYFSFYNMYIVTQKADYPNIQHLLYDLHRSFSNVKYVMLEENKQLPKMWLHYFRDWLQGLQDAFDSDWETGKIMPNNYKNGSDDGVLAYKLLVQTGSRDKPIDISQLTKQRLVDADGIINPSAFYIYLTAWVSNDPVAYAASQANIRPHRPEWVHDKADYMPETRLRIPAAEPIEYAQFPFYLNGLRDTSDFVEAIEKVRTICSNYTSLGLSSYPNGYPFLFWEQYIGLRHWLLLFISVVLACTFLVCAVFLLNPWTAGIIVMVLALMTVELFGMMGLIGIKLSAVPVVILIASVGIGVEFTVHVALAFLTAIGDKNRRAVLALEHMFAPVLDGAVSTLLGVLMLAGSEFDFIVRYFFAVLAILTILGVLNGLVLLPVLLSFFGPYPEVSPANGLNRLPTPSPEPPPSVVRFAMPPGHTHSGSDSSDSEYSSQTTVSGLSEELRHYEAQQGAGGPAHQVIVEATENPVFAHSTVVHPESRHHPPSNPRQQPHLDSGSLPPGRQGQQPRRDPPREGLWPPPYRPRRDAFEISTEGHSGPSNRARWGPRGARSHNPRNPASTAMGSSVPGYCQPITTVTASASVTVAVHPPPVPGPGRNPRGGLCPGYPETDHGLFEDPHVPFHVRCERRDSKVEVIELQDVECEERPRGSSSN
# Experiment: doxorubicin efflux from de-energized yeast, fluorescence microscopy
# Type: cell-based
# Details: read-out: % inhibition of dxr efflux at 10 μM
compound,measurement,value
"COc1cc(C)c(CC/C(C)=C/Cc2cc(O)ccc2O)c(C)c1C [compound 1, panicein A hydroquinone]",inhibition at 10 µM,~40%
